From US20210069295A1, “GALECTINS CONTROL MTOR IN RESPONSE TO ENDOMEMBRANE DAMAGE AND PROVIDE A MECHANISM AND TARGET FOR THE TREATMENT OF AUTOPHAGY-RELATED DISEASES” (STC. UNM, priority 2017, published 2021)
Peptide text beside a SMILES is read from it.

System: mTOR
Test: mTOR activity by immunoblotting of S6K1 (T389) and ULK1 (S757) phosphorylation in HEK293T cells
Format: cell-based
Procedure: (A) Dose-response analysis of mTOR activity in HEK293T cells treated with glycyl-L-phenylalanine 2-naphththylamide (GPN) in full medium for 1 h. mTOR activity was monitored by inununoblotting analysis of S6K1 (T389) and ULK1 (S757) phosphorylation (phosphorylated S6K (T389) and ULK1 (S757) relative to total S6K and ULK1, respectively). (B) Analysis of mTOR activity (as in A) after GPN washout. HEK293T cells were treated with 100 μM GPN for 1 h followed by 1 h washout in full medium. Data, means±SEM (n=3), **p<0.01, ANOVA. (C) Analysis of mTOR activity (as in A) in HEK293T cells treated with increasing doses of silica in full medium for 1 h. (D) HEK293T cells were treated with lysosomal damaging agents (LLOMe, Leu-Leu-OMe) for 1 h in full medium and status of acidified organelles assessed by quantifying LysoTracker Red DND-99 puncta using automated high-content imaging and analysis (HC). None-treated cells were as control (Ctrl). White masks, algorithm defined cell boundaries (primary objects); yellow masks, computer-identified LysoTracker Red puncta (target objects). Data, means±SEM, n≥3 independent experiments (500 primary objects counted per well; ≥5 wells/sample per each experiment), **p<0.01, ANOVA. (E) Analysis of mTOR activity in primary human macrophages treated with GPN. Human peripheral blood monocyte derived macrophages were treated with 100 μM GPN in full medium or starved in EBSS for 1 h, and mTOR activity measured as in A. None-treated cells were as control (Ctrl). (F) Quantification by HC of overlaps between mTOR and LAMP2 (representative images shown in FIG. S1D) in HeLa cells treated with lysosomal damaging agents for 1 h in full medium. Data, means±SEM, n≥3 independent experiments (500 primary objects counted per well; ≥5 wells/sample per each experiment) **p<0.01, ANOVA. (G) Immunofluorescence confocal microscopy visualization of mTOR localization relative to LAMP2-positive lysosomes. […] (H) Analysis of TFEB nuclear translocation in HeLa cells treated with 100 μM GPN in full medium for 1 h, and the nuclear translocation of TFEB was measured by HC (Nuclei, Hoechst 33342, blue pseudocolor; TFEB red fluorescence, Alexa-568). […] White masks, computer algorithm-defined cell boundaries (primary objects); pink masks, computer-identified nuclear TFEB based on the average intensity of Alexa-568 fluorescence. Data, means±SEM, n≥3 independent experiments (500 primary objects counted per well; ≥5 wells/sample per each experiment), **p<0.01, ANOVA. (I) HeLa cells were treated as indicated in full medium for 1 h, and LC3 puncta were quantified by HC. […] Data, means±SEM, n≥3 independent experiments (500 primary objects counted per well; ≥5 wells/sample per each experiment), **p<0.01, ANOVA. […]

NCC(=O)N[C@@H](Cc1ccccc1)C(=O)Nc1ccc2ccccc2c1 [GPN, glycyl-L-phenylalanine 2-naphththylamide] (HELM PEPTIDE1{G.F.[c1ccc2cc(N[*:1])ccc2c1]}$$$$V2.0)
mTOR activity after washout (100 μM GPN for 1 h followed by 1 h washout in full medium): reversed | mTOR activity (phosphorylation of its substrates S6K1 and ULK1) (HEK293T cells, full medium, 1 h): diminished mTOR activity | mTOR activity (S6K1 phosphorylation) in cells expressing constitutively active RagBQ99L (HEK293T stably expressing RagBQ99L, 100 μM GPN 1 h): not the case
